ChEMBL document CHEMBL1201862, “PubChem BioAssay data set” (2004)
Activity calls are given as the source filed them.

Key:
[1] = target: T1, Replicative DNA helicase DnaB (Mycobacterium tuberculosis, UniProt P9WMR3); test: DnaB intein splicing inhibitors, dose response, biochemical, cell-free fluorescence (AID 449749); format: functional
T1 sequence (P9WMR3 whole entry): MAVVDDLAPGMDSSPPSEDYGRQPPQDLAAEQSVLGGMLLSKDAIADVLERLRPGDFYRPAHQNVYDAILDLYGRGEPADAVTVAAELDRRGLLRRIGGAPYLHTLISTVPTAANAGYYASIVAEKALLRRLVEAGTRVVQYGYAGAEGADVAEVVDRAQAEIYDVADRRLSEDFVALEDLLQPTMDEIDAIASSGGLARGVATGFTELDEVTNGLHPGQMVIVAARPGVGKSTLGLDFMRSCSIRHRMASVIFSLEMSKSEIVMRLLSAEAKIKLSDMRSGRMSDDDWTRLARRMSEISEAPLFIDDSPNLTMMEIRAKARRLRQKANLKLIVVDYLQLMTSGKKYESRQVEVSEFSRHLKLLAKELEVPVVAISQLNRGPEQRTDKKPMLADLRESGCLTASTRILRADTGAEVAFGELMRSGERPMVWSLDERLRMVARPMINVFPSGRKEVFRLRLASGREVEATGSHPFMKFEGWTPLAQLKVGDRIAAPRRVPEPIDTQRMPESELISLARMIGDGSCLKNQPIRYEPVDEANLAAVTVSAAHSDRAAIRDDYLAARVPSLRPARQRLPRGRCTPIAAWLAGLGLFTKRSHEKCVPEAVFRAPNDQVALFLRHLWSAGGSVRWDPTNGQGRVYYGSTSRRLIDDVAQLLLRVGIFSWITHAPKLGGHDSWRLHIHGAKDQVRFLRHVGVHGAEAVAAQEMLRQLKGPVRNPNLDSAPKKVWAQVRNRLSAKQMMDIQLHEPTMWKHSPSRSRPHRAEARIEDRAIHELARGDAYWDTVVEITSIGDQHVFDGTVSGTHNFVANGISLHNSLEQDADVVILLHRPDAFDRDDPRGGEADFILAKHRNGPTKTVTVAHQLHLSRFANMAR

[2] = target: T2, Protein RecA (Mycobacterium tuberculosis, UniProt P9WHJ3); test: Fluorescence Cell-Free Homogeneous Dose Retest to Identify Inhibitors of RecA-Intein Splicing Activity. [Related pubchem assays (depositor defined):AID2097, AID2223, AID489010, AID492950]; format: functional
T2 sequence (P9WHJ3 whole entry): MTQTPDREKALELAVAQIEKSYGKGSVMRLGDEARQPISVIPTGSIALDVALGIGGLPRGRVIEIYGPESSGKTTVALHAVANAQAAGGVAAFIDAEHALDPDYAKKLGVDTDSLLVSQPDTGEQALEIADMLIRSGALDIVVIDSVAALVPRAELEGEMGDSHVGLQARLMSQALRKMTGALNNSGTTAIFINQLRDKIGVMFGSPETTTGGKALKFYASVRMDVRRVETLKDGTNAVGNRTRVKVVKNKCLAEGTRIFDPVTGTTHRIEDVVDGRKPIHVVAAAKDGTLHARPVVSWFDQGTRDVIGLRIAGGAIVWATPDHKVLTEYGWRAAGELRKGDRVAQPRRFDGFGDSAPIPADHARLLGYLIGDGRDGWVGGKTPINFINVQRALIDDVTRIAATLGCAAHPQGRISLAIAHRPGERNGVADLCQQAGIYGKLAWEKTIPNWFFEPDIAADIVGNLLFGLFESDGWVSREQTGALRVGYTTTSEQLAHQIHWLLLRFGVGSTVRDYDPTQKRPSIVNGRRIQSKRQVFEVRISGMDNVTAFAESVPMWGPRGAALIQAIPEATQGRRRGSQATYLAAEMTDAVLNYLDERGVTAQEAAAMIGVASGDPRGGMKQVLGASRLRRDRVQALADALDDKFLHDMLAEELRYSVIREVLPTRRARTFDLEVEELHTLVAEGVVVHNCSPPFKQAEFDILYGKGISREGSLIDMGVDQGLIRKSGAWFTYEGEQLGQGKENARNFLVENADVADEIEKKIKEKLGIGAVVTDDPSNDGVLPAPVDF

[3] = NIH3T3 cell viability loss – ATP luminescence, mouse fibroblasts, counter-screen, dose response (AID 2010); format: functional, cell-based;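 note: cells exposed to compound for about 90 hours before reading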
[4] = Trypanosoma cruzi growth suppression in host cells – NIH3T3 host cells, beta-gal luminescence, confirmation (AID 2044); format: functional, cell-based;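 note: intracellular parasites grown in NIH/3T3 mouse fibroblasts as host cells; luminescent beta-galactosidase reporter signal from transgenic T. cruzi replicating inside host cells; inhibitors lower the luminescence signal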
[5] = target: Cytochrome P450 2C19 (Homo sapiens, UniProt P33261); test: Cytochrome panel assay with activity outcomes. Panel member name: p450-cyp2c19 Compounds with AC50 equal or less than 10 uM are considered active; format: functional
[6] = target: T3, Cytochrome P450 1A2 (Homo sapiens, UniProt P05177);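 note: PubChem cytochrome P450 panel assay, CYP1A2 panel member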
T3 sequence (P05177 whole entry): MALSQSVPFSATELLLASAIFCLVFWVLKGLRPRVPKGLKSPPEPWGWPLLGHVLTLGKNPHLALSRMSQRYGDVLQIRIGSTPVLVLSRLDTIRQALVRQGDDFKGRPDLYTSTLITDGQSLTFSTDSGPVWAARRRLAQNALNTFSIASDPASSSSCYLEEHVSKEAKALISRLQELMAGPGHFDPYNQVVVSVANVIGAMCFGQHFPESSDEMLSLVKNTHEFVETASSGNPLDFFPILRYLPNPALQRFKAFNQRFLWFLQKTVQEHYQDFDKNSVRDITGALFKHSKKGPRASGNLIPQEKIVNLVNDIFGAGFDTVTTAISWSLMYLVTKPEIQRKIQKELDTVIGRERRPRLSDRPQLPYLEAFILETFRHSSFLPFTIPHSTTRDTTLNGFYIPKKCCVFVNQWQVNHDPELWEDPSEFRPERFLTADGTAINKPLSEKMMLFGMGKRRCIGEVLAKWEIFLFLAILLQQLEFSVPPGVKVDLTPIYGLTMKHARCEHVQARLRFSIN

[7] = system: Streptococcus sp. 'group A'; test: Streptococcus pyogenes SK(-)GAS viability under kanamycin – luminescence, BacTiterGlo, confirmation, counter-screen for streptokinase expression inhibitor project, dose response (AID 1900); format: functional, organism-based
[8] = system: Streptococcus; test: GAS UMAA2166 growth inhibition – luminescence, BacTiterGlo, counter-screen for streptokinase expression inhibitor project, dose response (AID 1915); format: functional, organism-based;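 note: potency for reduction of bacterial viability or growth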
[9] = system: INS1; test: INS-1E survival protection against cytokine death – cell-based, luminescence, retest, dose response (AID 449756); format: functional; settings: Rattus norvegicus;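 note: cell death triggered by IL-1 beta plus TNF-alpha plus IFN-gamma mixture; protective hits raise ATP signal compared with cytokine alone wells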

Cytochrome P450 2C19, sequence (P33261 whole entry): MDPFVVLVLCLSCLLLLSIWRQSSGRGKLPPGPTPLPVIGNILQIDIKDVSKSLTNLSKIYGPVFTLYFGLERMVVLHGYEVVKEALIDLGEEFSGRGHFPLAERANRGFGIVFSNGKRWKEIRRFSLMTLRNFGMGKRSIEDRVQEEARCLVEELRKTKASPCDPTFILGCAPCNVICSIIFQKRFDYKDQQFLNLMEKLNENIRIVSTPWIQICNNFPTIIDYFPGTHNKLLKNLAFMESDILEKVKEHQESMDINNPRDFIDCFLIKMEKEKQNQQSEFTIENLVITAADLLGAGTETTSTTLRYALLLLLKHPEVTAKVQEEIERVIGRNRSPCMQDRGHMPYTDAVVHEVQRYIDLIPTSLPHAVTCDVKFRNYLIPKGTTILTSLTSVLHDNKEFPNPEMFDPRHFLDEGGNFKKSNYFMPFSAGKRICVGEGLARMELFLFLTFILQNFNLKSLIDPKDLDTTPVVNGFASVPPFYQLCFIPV

CC(C)(C)Nc1nc(Cl)nc(N(C#N)CN2C(=O)c3ccccc3S2(=O)=O)n1
AC50 [1]: 15.5 µM (active) | EC50 [2]: 18.4 µM (active)

CN1CCC(N(C)S(=O)(=O)c2ccc(NC(=O)COc3cccc(Cl)c3)cc2)CC1
EC50 [3]: > 30 µM (not active) | EC50 [4]: 0.268 µM (active)

COc1ccc(NC(=O)N2CCCC3(CCNCC3)C2)cc1
AC50 [5]: inconclusive

CCCCCCSc1ccc(-c2nc3ccc(C)cn3c2NCc2ccccc2)cc1OC
EC50 [3]: 8.59 µM (active) | EC50 [4]: 0.701 µM (active)

O=C(OCC1CC(c2ccccc2)=NO1)c1ccc(Cl)cc1 (stereo not given)
AC50 [6]: 2.82 µM (inconclusive) | AC50 ([5]; read-out: AC50): 7.08 µM (inconclusive)

O=[N+]([O-])c1c(NCc2ccco2)ccc2nonc12
AC50 [1]: 8.52 µM (active) | EC50 [2]: 10.1 µM (active)

Cc1cc(C(F)(F)F)c2c(n1)sc1c(O)cc(O)nc12
EC50 [7]: 27.8 µM (active) | EC50 [8]: > 150 µM (not active)

COC(=O)[C@@]1(Cc2ccccc2)[C@@H]2C(=CC(=O)[C@H]2CC(=O)C(=O)N(C)C)CN1C(=O)c1ccccc1
AC50 [1]: < 0.018 µM (active) | EC50 [2]: 5.12 µM (active)

CC(C)=NO[C@@H](C)c1cn([C@@H]2COC[C@@H]2O)nn1
AC50 [5]: inconclusive

COCCn1c(C(=O)N2CCCC2)cc2c1C[C@H]1CN(C(=O)c3ccccc3)[C@@](Cc3ccc(F)cc3)(C(=O)OC)[C@@H]21
AC50 [6]: 31.6 µM (inconclusive) | AC50 ([5]; read-out: AC50): 25.1 µM (inconclusive)

O=[N+]([O-])c1ccc2ncccc2c1CCc1c([N+](=O)[O-])ccc2ncccc12
AC50 [6]: 3.16 µM (inconclusive)

N=C(N)SCCCN
AC50 [6]: 6.31 µM (inconclusive) | AC50 [5]: inconclusive

Cc1ccc(C2C(C#N)=C(N)Oc3n[nH]c(-c4cccs4)c32)cc1 (stereo not given)
AC50 [1]: 4.21 µM (active) | EC50 [2]: 1.12 µM (active)

CC1(C)CCC(C)(C)c2c1ccc(O)c2Cc1c(O)ccc2c1C(C)(C)CCC2(C)C
AC50 [6]: 5.01 µM (inconclusive)

O=[N+]([O-])c1ccc2c(OCc3nnc(-c4ccccc4Br)o3)ncnc2c1
EC50 [3]: 10.4 µM (active) | EC50 [4]: 0.213 µM (active)

Cc1ccc(C(=O)n2cnc3ccccc32)cc1C
AC50 [1]: 37.7 µM (active) | EC50 [2]: 124 µM (active)

CC(C)CCN1CCN(C2CCN(c3ccc4c(c3)OCO4)CC2)CC1CCO (stereo not given)
EC50 [3]: > 60 µM (not active) | EC50 [4]: 1.56 µM (active)

O=C(c1ccc([N+](=O)[O-])s1)N1CCc2ccccc2C1
EC50 [3]: > 60 µM (not active) | EC50 [4]: 0.476 µM (active)

CC(C)CN1CCCC(N2CCN(c3cccc(Cl)c3)CC2)C1 (stereo not given)
EC50 [3]: > 60 µM (not active) | EC50 [4]: 3.19 µM (active)

CS(=O)(=O)Nc1cccc(-c2ccc3ncnc(NC4CCNCC4)c3c2)c1
AC50 [6]: 31.6 µM (inconclusive)

C=CCN(CC=C)Cc1c[nH]c2ccccc12
AC50 [9]: > 260 µM (inactive)

CCCC(=O)NNC(=O)Nc1ccccc1
AC50 ([5]; read-out: AC50): 28.2 µM (inconclusive)

CCN(CC)CCNc1c2c(c(C#N)c3nc4ccccc4n13)CCCC2
EC50 [3]: > 60 µM (not active) | EC50 [4]: 0.226 µM (active)

C[C@@](N)(C(=O)O)c1ccc(P(=O)(O)O)cc1
AC50 [6]: 39.8 µM (inconclusive)

Cn1cc(CN2CCCC(CO)(Cc3ccccc3)C2)c2ccccc21 (stereo not given)
EC50 [3]: > 60 µM (not active) | EC50 [4]: 0.62 µM (active)

Cc1cc(C(=O)NNC(=S)NC(C)c2ccccc2)c2ccccc2n1 (stereo not given)
AC50 [6]: 31.6 µM (inconclusive) | AC50 ([5]; read-out: AC50): 22.4 µM (inconclusive)

COc1ccc(/C=C2\CCCc3c2nc2ccccc2c3C(=O)OCC(=O)c2c(N)n(C)c(=O)n(C)c2=O)cc1
EC50 [3]: > 60 µM (not active) | EC50 [4]: 1.05 µM (active)

CCOC(=O)Nc1ccc2c(c1)N(C(=O)CCN(C)C)c1ccccc1S2
EC50 [3]: > 60 µM (not active) | EC50 [4]: 1.8 µM (active)

O=C1c2ccccc2C(=O)N1CCSC(=S)N1CCOCC1
AC50 [6]: 3.16 µM (inconclusive)

O=C(Nc1nc(-c2ccccc2)c(-c2ccccc2)s1)c1ccc(S(=O)(=O)N(CCCl)CCCl)cc1
EC50 [3]: > 30 µM (not active) | EC50 [4]: 1.25 µM (active)

N#Cc1cnn(-c2nc(SCc3ccccc3)nc3sc4c(c23)CCCC4)c1N
EC50 [3]: > 60 µM (not active) | EC50 [4]: 2.24 µM (active)

O=C(c1c[nH]c(C(=O)C(Cl)(Cl)Cl)c1)c1ccc(F)cc1Cl
AC50 [1]: 13 µM (active) | EC50 [2]: 4.49 µM (active)

CC1CC(=O)c2cnc(N)nc2C1 (stereo not given)
AC50 [5]: inconclusive

O=C(c1cccc(C(F)(F)F)c1)C1CCCN(Cc2ncc[nH]2)C1 (stereo not given)
AC50 [1]: > 380 µM (inactive) | EC50 [2]: > 380 µM (inactive)

Cc1cc[n+](CC(=O)Nc2cc(C(F)(F)F)ccc2Cl)cc1
AC50 [6]: 15.8 µM (inconclusive) | AC50 ([5]; read-out: AC50): 3.98 µM (inconclusive)

Cc1nc2ncnn2c(O)c1NC(=O)CC12CC3CC(CC(C3)C1)C2
AC50 ([5]; read-out: AC50): 44.7 µM (inconclusive)

COc1ccccc1NC(=O)CCN1C(=O)C2CC=C(Cl)CC2C1=O (stereo not given)
AC50 ([5]; read-out: AC50): 7.94 µM (inconclusive)

Cc1cc(C)c(C#N)c(Oc2ccc(F)cc2)n1
AC50 ([5]; read-out: AC50): 39.8 µM (inconclusive)

Cc1ccc(C)c(/N=C2\C(Cl)=C(O)OC2OC(=O)c2ccco2)c1 (stereo not given)
AC50 [1]: 20 µM (active) | EC50 [2]: 9.37 µM (active)

CCOc1ccc(N(C(C)C(=O)N/N=C(\C)c2cccc(NC(=O)c3ccccc3)c2)S(C)(=O)=O)cc1 (stereo not given)
AC50 [6]: 14.1 µM (inconclusive)

COCc1c(Br)c(C)nc(OCC(=O)N/N=C/c2cc(C)n(-c3ccc([N+](=O)[O-])cc3)c2C)c1C#N
EC50 [3]: > 60 µM (not active) | EC50 [4]: 1.95 µM (active)

NC(=S)N/N=C/c1ccc(-c2cc(Cl)c(Cl)cc2Cl)o1
EC50 [3]: > 60 µM (inconclusive) | EC50 [4]: 0.122 µM (active)

CC(C)(C)c1cnnn1-c1ccc(/C=N/Nc2ccc([N+](=O)[O-])cc2)cc1
AC50 [9]: 4.33 µM (active)

Fc1ccc(N/N=C/c2ccc(N3CCOCC3)cc2)c(F)c1
EC50 [3]: > 30 µM (not active) | EC50 [4]: 0.406 µM (active)

CN1CCN(c2ccc([N+](=O)[O-])c3[nH]o[n+](=O)c23)CC1
AC50 [6]: 0.398 µM (inconclusive)

CCNC(=O)c1ccc(-n2nc(C)cc2-c2ccccc2)cc1
AC50 [6]: 14.1 µM (inconclusive)
